Test [1] deals with T1, A II-induced contraction in the rabbit aorta (Oryctolagus cuniculus, UniProt P34976).
T1 construct: A II-induced contraction in the rabbit aorta; from tissue; host or cells: rabbit aorta
T1 sequence (P34976 1-359): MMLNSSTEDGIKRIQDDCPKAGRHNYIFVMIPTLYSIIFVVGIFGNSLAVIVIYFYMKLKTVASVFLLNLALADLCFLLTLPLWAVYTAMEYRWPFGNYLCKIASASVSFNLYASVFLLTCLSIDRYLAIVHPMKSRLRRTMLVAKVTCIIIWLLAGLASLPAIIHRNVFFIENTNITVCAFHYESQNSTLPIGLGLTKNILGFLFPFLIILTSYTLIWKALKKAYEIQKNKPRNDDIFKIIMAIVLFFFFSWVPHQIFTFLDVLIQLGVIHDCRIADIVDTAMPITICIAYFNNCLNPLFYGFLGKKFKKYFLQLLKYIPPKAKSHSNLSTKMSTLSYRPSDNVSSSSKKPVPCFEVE
Put plainly: inhibition of the A II-induced contraction in the rabbit aorta (in vitro). It counts as cell-based. The note with it: read-out: pA2 (converted). The text has this:
(§1) For the characterization and the evaluation of the effectiveness of the compounds of the invention, in vitro tests (such as the inhibition of the A II-induced contraction in the rabbit aorta and the displacement of ^125 I-Sar^1 -Ile^8 -AT II or [H^3 ] AT II in the rat adrenal cortex) and an in vivo test (the inhibition of the A II-induced pressory response in the ganglio-blocked normotensive rat) were selected.

Test [2] relates to A II-induced pressory response. Put plainly: inhibition of the A II-induced pressory response in the ganglio-blocked normotensive rat (in vivo). Conditions: iv.
Excerpt: as §1

A further test has as its target A II receptor. Put plainly: receptor binding test: displacement of 125I-Sar1-Ile8-AT II or [H3] AT II in the rat adrenal cortex.
Excerpt: The compounds described in the present invention act as antagonists at the A II receptor level.
as §1

Turning to `CCCCc1nc(-c2ccccc2C(=O)O)cn1Cc1ccc(-c2ccccc2-c2nnn[nH]2)cc1` [Example 10, 2-Butyl-4-(2-carboxyphenyl)-1-[[2'-(tetrazol-5-yl) -biphenyl-4-yl]methyl]-1H-imidazole], the Kb in test [1] was 10 nM. In test [2], this compound came in with an ED50 of 0.52 mg/kg.

Turning to `CCCCc1nc(-c2cccc[n+]2[O-])cn1Cc1ccc(-c2ccccc2-c2nn[nH]n2)cc1` [Example 10e, 2-butyl-4-(pyridin-2-yl-N-oxide)-1-[[2'-(tetrazol-5-yl)biphenyl-4-yl]methyl]-1H-imidazole], the affinity on A II receptor, expressed as Ki, was 6.5 nM. The compound further returned a median effective dose (ED50) in test [2] of 0.54 mg/kg.

By ED50 is commonly meant the dose that gives a 50% effect, or the effect in half of the subjects. Higher therefore signals a need for a large dose. As usually defined, the Ki is a measure of affinity in units of concentration, obtained from inhibition or displacement. A lower Ki goes with higher affinity.

The values are drawn from patent US5587390A, “Imidazole derivatives having a II antagonist activity” (Istituto Luso Farmaco D'Italia S.p.A., priority 1992, dated 1996).
